# Laboratory results published in US10905762B2, “Targeted nanoparticle conjugates” (CASE WESTERN RESERVE UNIVERSITY, priority 2011, dated 2021).
# Columns and labels:
# EGFR = EGFR (Homo sapiens, UniProt P00533); details: binding to the EGFR; read-out: dissociation constant; cited from earlier work
# 9L.E29 cells [1] = experiment: Cell viability assay using Trypan blue; format: cell-based, rat; details: 1 μM of Pc 4 and 1 J/cm^2 of laser power
# Text: Cell viability assays using Trypan blue for EGFpep-Au NP-Pc 4 treated cells further illustrated this point (FIG. 4C), showing not only an increase in the number of dead cancer cells, but possibly different pathways of cell death.
# 9L.E29 cells [2] = details: free Pc 4, stated as known; cited from earlier work
# glioma cancer cells = details: stated as known; cited from earlier work
Substance,Kd (EGFR) [nM],mode of cell death (Trypan blue staining) (9L.E29 cells [1]),subcellular localization of Pc 4 (known) (9L.E29 cells [2]),localization of free Pc 4 (known) (glioma cancer cells)
"YHWYGYTPQNVI [EGF peptide, YHWYGYTPQNVI-amide]",22,,,
phthalocyanine 4 [free Pc 4],,caused most cancer cells to die very quickly,localize mainly in mitochondria with some additional localization within lysosomes,known to locate in the mitochondria
